From the NIST ThermoML archive (doi:10.1021/je0501890)

Assay: xn = mol fraction of the nth substance listed
Details: 101.33 kPa, Liquid

ClC(Cl)=C(Cl)Cl [tetrachloroethene] + CCCCCCCO
Details | mass density, 293.15 K [kg/m3] | mass density, 298.15 K [kg/m3] | mass density, 303.15 K [kg/m3] | viscosity, 293.15 K [mPa·s] | viscosity, 298.15 K [mPa·s] | viscosity, 303.15 K [mPa·s]
x2 = 0.0564 | 1560.55 | 1552.56 | 1544.51 | – | – | –
x2 = 0.098 | 1516.9 | 1509.2 | 1501.4 | – | – | –
x2 = 0.1052 | – | – | – | 1.064 | 0.993 | 0.961
x2 = 0.152 | 1462.26 | 1454.91 | 1447.45 | – | – | –
x2 = 0.2 | – | – | – | 1.285 | 1.186 | 1.116
x2 = 0.2001 | 1415.53 | 1408.42 | 1401.24 | – | – | –
x2 = 0.248 | 1370.53 | 1363.81 | 1356.93 | – | – | –
x2 = 0.2939 | – | – | – | 1.569 | 1.441 | 1.321
x2 = 0.2944 | 1328.47 | 1321.91 | 1315.32 | – | – | –
x2 = 0.3527 | 1277.56 | 1271.32 | 1265.06 | – | – | –
x2 = 0.3983 | 1239.09 | 1233.07 | 1227.04 | – | – | –
x2 = 0.4073 | – | – | – | 2.024 | 1.83 | 1.661
x2 = 0.4484 | 1198.21 | 1192.43 | 1186.64 | – | – | –
x2 = 0.4612 | – | – | – | 2.292 | 2.05 | 1.851
x2 = 0.4982 | – | – | – | 2.509 | 2.231 | 2.002
x2 = 0.5051 | 1153.53 | 1148.07 | 1142.54 | – | – | –
x2 = 0.5477 | 1121.03 | 1115.76 | 1110.45 | – | – | –
x2 = 0.55 | – | – | – | 2.827 | 2.501 | 2.222
x2 = 0.5992 | – | – | – | 3.169 | 2.798 | 2.462
x2 = 0.6002 | 1082.09 | 1077.06 | 1071.96 | – | – | –
x2 = 0.6503 | 1046.14 | 1041.3 | 1036.45 | – | – | –
x2 = 0.6926 | – | – | – | 3.922 | 3.397 | 2.958
x2 = 0.7419 | 983.09 | 978.66 | 974.19 | – | – | –
x2 = 0.8016 | 943.84 | 939.63 | 935.38 | – | – | –
x2 = 0.8034 | – | – | – | 4.966 | 4.249 | 3.631
x2 = 0.8533 | 910.96 | 906.93 | 902.87 | – | – | –
x2 = 0.8578 | – | – | – | 5.52 | 4.704 | 4.03
x2 = 0.8961 | – | – | – | 5.942 | 5.052 | 4.324
x2 = 0.8963 | 884.26 | 880.43 | 876.54 | – | – | –
x2 = 0.9453 | 854.68 | 851.01 | 847.3 | – | – | –

ClC=C(Cl)Cl [trichloroethene] + CCCCCCCO
Details | mass density, 293.15 K [kg/m3] | mass density, 298.15 K [kg/m3] | mass density, 303.15 K [kg/m3] | viscosity, 293.15 K [mPa·s] | viscosity, 298.15 K [mPa·s] | viscosity, 303.15 K [mPa·s]
x2 = 0.0507 | 1412.78 | 1404.82 | 1396.73 | – | – | –
x2 = 0.0927 | – | – | – | 0.671 | 0.635 | 0.6
x2 = 0.0992 | 1367.53 | 1359.9 | 1352.18 | – | – | –
x2 = 0.1569 | 1317.05 | 1309.82 | 1302.52 | – | – | –
x2 = 0.201 | – | – | – | 0.883 | 0.826 | 0.763
x2 = 0.2026 | 1279.18 | 1272.23 | 1265.25 | – | – | –
x2 = 0.2558 | 1237.46 | 1230.87 | 1224.15 | – | – | –
x2 = 0.256 | – | – | – | 1.017 | 0.949 | 0.875
x2 = 0.304 | – | – | – | 1.158 | 1.073 | 0.989
x2 = 0.3109 | 1196.47 | 1190.18 | 1183.85 | – | – | –
x2 = 0.3618 | 1160.63 | 1154.67 | 1148.63 | – | – | –
x2 = 0.3997 | 1134.97 | 1129.21 | 1123.37 | – | – | –
x2 = 0.4057 | – | – | – | 1.535 | 1.397 | 1.28
x2 = 0.43 | 1115.18 | 1109.55 | 1103.85 | – | – | –
x2 = 0.5098 | – | – | – | 2.05 | 1.838 | 1.662
x2 = 0.51 | 1065.33 | 1060.09 | 1054.79 | – | – | –
x2 = 0.5508 | – | – | – | 2.307 | 2.046 | 1.839
x2 = 0.5514 | 1040.91 | 1035.82 | 1030.7 | – | – | –
x2 = 0.6022 | – | – | – | 2.648 | 2.342 | 2.082
x2 = 0.6149 | 1005.06 | 1000.28 | 995.43 | – | – | –
x2 = 0.6574 | 982.15 | 977.54 | 972.87 | – | – | –
x2 = 0.7071 | 956.39 | 951.95 | 947.47 | – | – | –
x2 = 0.7077 | – | – | – | 3.52 | 3.065 | 2.672
x2 = 0.7571 | 931.38 | 927.1 | 922.8 | – | – | –
x2 = 0.8016 | 909.97 | 905.84 | 901.69 | – | – | –
x2 = 0.802 | – | – | – | 4.51 | 3.865 | 3.333
x2 = 0.8699 | – | – | – | 5.313 | 4.537 | 3.89
x2 = 0.8728 | 877.14 | 873.27 | 869.35 | – | – | –
x2 = 0.893 | – | – | – | 5.624 | 4.804 | 4.112
x2 = 0.9405 | 847.47 | 843.79 | 840.09 | – | – | –
